Results published in publication PMC11672400, “Synthesis, Spectroscopic Characterization, Structural Analysis, and Evaluation of Anti-Tumor, Antimicrobial, and Antibiofilm Activities of Halogenoaminopyrazoles Derivatives” (Antibiotics, 2024).
Converted amounts (≈) assume the structure as drawn. Where two headings read alike, the source gives them in different places.

Columns and labels:
[1] = system: Enterococcus faecalis ATCC29212; test: MIC by serial microdilution in liquid medium; assay type: cell-based; conditions: Enterococcus faecalis, ATCC29212; 24 h, 37 °C; read-out: Minimum inhibitory concentration, Enterococcus faecalis ATCC29212
Experimental: (§1) The minimum inhibitory concentrations (MIC) were determined by the serial microdilution method in a liquid medium (Tryptone Soy Broth), on 96-well plates. Serial binary dilutions of the compound stock solution (10 mg/mL in DMSO) were carried out in 90 µL of culture medium and 10 µL of 10^6 CFU/mL (Colony Forming Units) microbial suspension. Each test included a positive control (wells with culture medium and microbial suspension) and a negative control for medium sterility. After incubation at 37 °C for 24 h the plates were visually examined, and optical density was measured at 620 nm. […] The MIC value (µg/mL) for the chemical compound was determined by the concentration in the final well without bacterial growth. All experiments were performed in triplicate.

[2] = system: Pseudomonas aeruginosa ATCC27853; test: MIC by serial microdilution in liquid medium; assay type: cell-based; conditions: Pseudomonas aeruginosa, ATCC27853; 24 h, 37 °C; read-out: Minimum inhibitory concentration, Pseudomonas aeruginosa ATCC27853
Experimental: as §1

[3] = system: Staphylococcus aureus ATCC25923; test: MIC by serial microdilution in liquid medium; assay type: cell-based; conditions: 24 h, 37 °C; for MIC: Staphylococcus aureus, ATCC25923, read-out: Minimum inhibitory concentration, Staphylococcus aureus ATCC25923
Experimental: as §1

[4] = system: Escherichia coli ATCC25922; test: MIC by serial microdilution in liquid medium; assay type: cell-based; conditions: 24 h, 37 °C; for MIC: Escherichia coli, ATCC25922, read-out: Minimum inhibitory concentration, Escherichia coli ATCC25922
Experimental: as §1

[5] = system: Enterococcus faecalis ATCC29212; test: Qualitative evaluation of antimicrobial activity (inhibition zone, spot on agar); assay type: cell-based; design: key: (+) inhibited bacterial growth; (-) did not inhibit bacterial growth; conditions: 0.06 g/2 mL DMSO, 5 µL spot
Experimental: (§2) For testing the antimicrobial/antibiofilm activity, the concentration of the studied compounds was identical to 0.06 g/2 mL DMSO. 0.5 Standard McFarland suspension was used, which was inoculated onto Mueller Hinton agar plates, (Remel, Lenexa, KS, USA), 5 µL of each compound was spotted and incubated overnight at 37 °C. Antimicrobial activity was observed as zones of inhibition formed around the spot.

[6] = system: Pseudomonas aeruginosa ATCC27853; test: as above; assay type: cell-based; design: key: (+) inhibited bacterial growth; (-) did not inhibit bacterial growth; conditions: 0.06 g/2 mL DMSO, 5 µL spot
Experimental: as §2

[7] = system: Staphylococcus aureus ATCC25923; test: as above; assay type: cell-based; design: key: (+) inhibited bacterial growth; (-) did not inhibit bacterial growth; conditions: 0.06 g/2 mL DMSO, 5 µL spot
Experimental: as §2

[8] = system: Escherichia coli ATCC25922; test: as above; assay type: cell-based; design: key: (+) inhibited bacterial growth; (-) did not inhibit bacterial growth; conditions: 0.06 g/2 mL DMSO, 5 µL spot
Experimental: as §2

[9] = system: Enterococcus faecalis ATCC29212; test: Antibiofilm assay (crystal violet), MBIC; assay type: cell-based; conditions: Enterococcus faecalis, ATCC29212, 24 h, 37 °C, read-out: Minimum biofilm inhibition concentration (MBIC), Enterococcus faecalis ATCC29212
Experimental: (§3) Microorganisms were grown in 96-well plates filled with nutrient broth along with test substances, followed by incubation at 37 °C for 24 h. Plates were cleaned and rinsed thrice using SPW solution (sterile physiological water). After that, the attached cells were treated with 110 μL of methanol for 5 min, and then the methanol was removed by turning it upside down. […] Once stained, the solution was removed, and the plates were washed with running tap water. […] The antimicrobial/antibiofilm activity of the compounds was evaluated against two antibiotics, commercial formulations of metronidazole and nitrofurantoin.

[10] = system: Pseudomonas aeruginosa ATCC27853; test: Antibiofilm assay (crystal violet), MBIC; assay type: cell-based; conditions: 37 °C; for minimal effective concentration: Pseudomonas aeruginosa, ATCC27853, 24 h, read-out: Minimum biofilm inhibition concentration (MBIC), Pseudomonas aeruginosa ATCC27853
Experimental: as §3

[11] = system: Staphylococcus aureus ATCC25923; test: Antibiofilm assay (crystal violet), MBIC; assay type: cell-based; conditions: 24 h, 37 °C; for minimal effective concentration: Staphylococcus aureus, ATCC25923, read-out: Minimum biofilm inhibition concentration (MBIC), Staphylococcus aureus ATCC25923
Experimental: as §3

[12] = system: Escherichia coli ATCC25922; test: Antibiofilm assay (crystal violet), MBIC; assay type: cell-based; conditions: 37 °C; for minimal effective concentration: Escherichia coli, ATCC25922, 24 h, read-out: Minimum biofilm inhibition concentration (MBIC), Escherichia coli ATCC25922
Experimental: as §3

[13] = system: HEp-2 epithelial tumor cells; test: MTT cell viability / anti-tumor activity; conditions: Homo sapiens, read-out: Cell viability on Hep2 cells (%)
[14] = MTT cell viability / cytotoxicity on normal fibroblasts; assay type: cell-based, mouse; conditions: mouse, NCTC clone 929 (L929) mouse fibroblast cells
From the text: Merck chemicals were utilized.
Untreated cells were used as control, considered 100% viable cells.

| SMILES | MIC [1] | MIC [2] | MIC [3] | MIC [4] | Qualitative antimicrobial activity, Enterococcus faecalis ATCC29212 [5] | Qualitative antimicrobial activity, Pseudomonas aeruginosa ATCC27853 [6] | Qualitative antimicrobial activity, Staphylococcus aureus ATCC25923 [7] | Qualitative antimicrobial activity, Escherichia coli ATCC25922 [8] | minimal effective concentration [9] | minimal effective concentration [10] | minimal effective concentration [11] | minimal effective concentration [12] | Minimum inhibitory concentration, Staphylococcus aureus ATCC25923 [3] | Minimum inhibitory concentration, Escherichia coli ATCC25922 [4] | viability at 3.1 µg/mL ([13]; HEp-2, 24 h) | viability at 6.25 µg/mL ([13]; HEp-2, 24 h) | viability at 12.5 µg/mL ([13]; HEp-2, 24 h) | viability at 25 µg/mL ([13]; HEp-2, 24 h) | viability at 50 µg/mL ([13]; HEp-2, 24 h) | viability at 3.1 µg/mL ([13]; HEp-2, 48 h) | further results |
| --- | --- | --- | --- | --- | --- | --- | --- | --- | --- | --- | --- | --- | --- | --- | --- | --- | --- | --- | --- | --- | --- |
| Cc1ncc([N+](=O)[O-])n1CCO [Metronidazole, metronidazole, reference compound] | 970 ± 0.17 µg/mL (≈ 5670 µM) | 1562 ± 0.03 µg/mL (≈ 9130 µM) | 1950 ± 0.05 µg/mL (≈ 11400 µM) | 1950 ± 0.05 µg/mL (≈ 11400 µM) | + | + | + | + | 970 ± 0.21 µg/mL | 1562 ± 0.11 µg/mL | 1950 ± 0.09 µg/mL | 1950 ± 0.04 µg/mL |  |  |  |  |  |  |  |  |  |
| O=C1CN(/N=C/c2ccc([N+](=O)[O-])o2)C(=O)N1 [Nitrofurantoin, nitrofurantoin, reference compound] | 600 ± 0.12 µg/mL (≈ 2520 µM) | 3571 ± 0.08 µg/mL (≈ 15000 µM) | 600 ± 0.04 µg/mL (≈ 2520 µM) | 600 ± 0.02 µg/mL (≈ 2520 µM) | + | + | + | + | 600 ± 0.17 µg/mL | 550 ± 0.23 µg/mL | 2230 ± 0.13 µg/mL | 600 ± 0.03 µg/mL |  |  |  |  |  |  |  |  |  |
| Cc1nn(CNc2ccccc2Cl)c(C)c1[N+](=O)[O-] [4f, N-[(3,5-dimetyl-4-nitro-1H-pyrazol-1-yl)-methyl]-2-chloroaniline] | 930 ± 0.04 µg/mL (≈ 3310 µM) | 460 ± 0.03 µg/mL (≈ 1640 µM) | 460 µg/mL (≈ 1640 µM) | 460 µg/mL (≈ 1640 µM) | - | + | + | + |  | 460 µg/mL | 460 µg/mL | 460 µg/mL | 460 ± 0.01 µg/mL (≈ 1640 µM) | 460 ± 0.02 µg/mL (≈ 1640 µM) | 98.3 ± 1.16% | 98.61 ± 0.72% | 95.5 ± 2.45% | 94.3 ± 2.78% | 93.9 ± 1.03% | 98.3 ± 3.38% | viability at 6.25 µg/mL ([13]; HEp-2, 48 h): 97.74 ± 0.62%; viability at 12.5 µg/mL ([13]; HEp-2, 48 h): 93.63 ± 0.75%; viability at 25 µg/mL ([13]; HEp-2, 48 h): 86 ± 0.93%; viability at 50 µg/mL ([13]; HEp-2, 48 h): 72.8 ± 2.33%; melting point: 134 to 135 °C; viability at 24 h, 3.1 µg/mL [14]: 107 ± 1.61%; viability at 48 h, 3.1 µg/mL [14]: 99.6 ± 1.2%; viability at 24 h, 6.25 µg/mL [14]: 108 ± 1.6%; viability at 48 h, 6.25 µg/mL [14]: 106 ± 1.7%; viability at 24 h, 12.5 µg/mL [14]: 103 ± 1.05%; viability at 48 h, 12.5 µg/mL [14]: 103.1 ± 0.68%; viability at 24 h, 25 µg/mL [14]: 93.7 ± 2.77%; viability at 48 h, 25 µg/mL [14]: 97.8 ± 2.35%; viability at 24 h, 50 µg/mL [14]: 87.7 ± 1.77%; viability at 48 h, 50 µg/mL [14]: 80.5 ± 1.16%; Minimum biofilm inhibition concentration (MBIC), Pseudomonas aeruginosa ATCC27853 ([10]; 24 h): 460 ± 0.01 µg/mL; Minimum biofilm inhibition concentration (MBIC), Staphylococcus aureus ATCC25923 [11]: 460 ± 0.02 µg/mL; Minimum biofilm inhibition concentration (MBIC), Escherichia coli ATCC25922 ([12]; 24 h): 460 ± 0.02 µg/mL |
| Cc1nn(CNc2cccc(Cl)c2)c(C)c1[N+](=O)[O-] [4e, N-[(3,5-dimetyl-4-nitro-1H-pyrazol-1-yl)-methyl]-3-chloroaniline] | 930 ± 0.02 µg/mL (≈ 3310 µM) | 930 ± 0.53 µg/mL (≈ 3310 µM) | 460 µg/mL (≈ 1640 µM) | 460 µg/mL (≈ 1640 µM) | - | + | + | + |  |  | 460 µg/mL |  | 460 ± 0.03 µg/mL (≈ 1640 µM) | 460 ± 0.52 µg/mL (≈ 1640 µM) | 106.5 ± 0.73% | 103.7 ± 0.28% | 99.7 ± 0.32% | 89.15 ± 0.88% | 56.46 ± 0.42% | 98.1 ± 2.88% | viability at 6.25 µg/mL ([13]; HEp-2, 48 h): 97.1 ± 1.78%; viability at 12.5 µg/mL ([13]; HEp-2, 48 h): 94.8 ± 2.84%; viability at 25 µg/mL ([13]; HEp-2, 48 h): 81.7 ± 2.38%; viability at 50 µg/mL ([13]; HEp-2, 48 h): 54.9 ± 2.76%; melting point: 110 to 111 °C; viability at 24 h, 3.1 µg/mL [14]: 93.1 ± 2.76%; viability at 48 h, 3.1 µg/mL [14]: 89.5 ± 2.24%; viability at 24 h, 6.25 µg/mL [14]: 94.3 ± 2.92%; viability at 48 h, 6.25 µg/mL [14]: 98.3 ± 2.03%; viability at 24 h, 12.5 µg/mL [14]: 97.8 ± 0.99%; viability at 48 h, 12.5 µg/mL [14]: 93.2 ± 2.94%; viability at 24 h, 25 µg/mL [14]: 95.6 ± 2.19%; viability at 48 h, 25 µg/mL [14]: 92.2 ± 0.89%; viability at 24 h, 50 µg/mL [14]: 63.5 ± 3.18%; viability at 48 h, 50 µg/mL [14]: 63.2 ± 2.56%; Minimum biofilm inhibition concentration (MBIC), Staphylococcus aureus ATCC25923 [11]: 460 ± 0.04 µg/mL |
